In ChEMBL document CHEMBL1141672, “Novel bradykinin-1 antagonists containing a (1,2,3,4-tetrahydro-isoquinolin-1-yl)acetic acid scaffold” (Eur J Med Chem, 2008):

Each compound was assayed against T1, B1 bradykinin receptor (Homo sapiens) (UniProt P46663) (assay: Antagonist activity against human recombinant bradykinin B1 receptor expressed in CHO cells assessed as inhibition of [Lys-des-Arg9]bradykinin-induced cytoplasmic calcium release at 5 uM by fluorimetry).
T1 sequence (whole entry): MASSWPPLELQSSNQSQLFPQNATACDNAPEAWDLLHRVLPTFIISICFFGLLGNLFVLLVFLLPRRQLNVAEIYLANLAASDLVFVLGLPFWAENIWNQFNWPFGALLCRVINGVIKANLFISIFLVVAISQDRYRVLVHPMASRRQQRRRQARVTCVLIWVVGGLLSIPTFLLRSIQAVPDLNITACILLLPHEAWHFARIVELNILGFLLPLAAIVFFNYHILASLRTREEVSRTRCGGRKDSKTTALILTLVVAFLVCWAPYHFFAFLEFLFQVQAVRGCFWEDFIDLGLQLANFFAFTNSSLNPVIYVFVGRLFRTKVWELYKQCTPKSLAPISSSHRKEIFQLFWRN
Type: functional, cell-based

Compound | inhibition
COc1cc2c(cc1OC)C(CC(=O)NCCc1ccc(C3=NCCN3)cc1)N(S(=O)(=O)c1ccc(C)cc1)CC2 (racemic) | 85.7%
Cc1ccc(S(=O)(=O)N2CCc3ccccc3C2CC(=O)NCCc2ccc(C3=NCCN3)cc2)cc1 (racemic) | 99%
COc1cc2c(cc1OC)C(CC(=O)NCCCCCCN)N(S(=O)(=O)c1ccc(C)cc1)CC2 (racemic) | 10.9%
COc1cc2c(cc1OC)C(CC(=O)NCCCCN)N(S(=O)(=O)c1ccc(C)cc1)CC2 (racemic) | 15.3%
COc1cc2c(cc1OC)C(CC(=O)NCCCCNC(=N)N)N(S(=O)(=O)c1ccc(C)cc1)CC2 (racemic) | 19%
Cc1ccc(S(=O)(=O)N2CCc3ccccc3C2CC(=O)NCCCCCCN)cc1 (racemic) | 16.3%
Cc1ccc(S(=O)(=O)N2CCc3ccccc3C2CC(=O)NCCCCNC(=N)N)cc1 (racemic) | 44.9%

Continued, values first:

inhibition | Compound
9.3% | COc1cc2c(cc1OC)C(CC(=O)NC1CCCCCC1)N(S(=O)(=O)c1ccc(C)cc1)CC2 (racemic)
37% | Cc1ccc(S(=O)(=O)N2CCc3ccccc3C2CC(=O)NC2CCCCCC2)cc1 (racemic)
15.9% | Cc1ccc(S(=O)(=O)N2CCc3ccccc3C2CC(=O)NCCCCN)cc1 (racemic)

The compounds below were run against T2, B1 bradykinin receptor (Homo sapiens, UniProt P46663) (assay: Displacement of [3H]Lys-bradykinin from human recombinant bradykinin B1 receptor expressed in CHO cells by scintillation counting).
T2 sequence (P46663 whole entry): T1 sequence (whole entry)
Type: cell-based

Ki | Compound
2000 nM | COc1cc2c(cc1OC)C(CC(=O)NCCc1ccc(C3=NCCN3)cc1)N(S(=O)(=O)c1ccc(C)cc1)CC2 (racemic)
67 nM | Cc1ccc(S(=O)(=O)N2CCc3ccccc3C2CC(=O)NCCc2ccc(C3=NCCN3)cc2)cc1 (racemic)
